# Reference: patent US12325696B2, “Indazole derivative, preparation method therefor, and pharmaceutical application thereof” (JIANGSU HENGRUI MEDICINE CO., LTD., priority 2019, dated 2025)
# Key:
# [1] = test system: estrogen receptor reporter gene; test: Inhibition of estrogen receptor reporter gene activity (ERE-luc luciferase) in MCF7/ERE-luc cells; assay type: cell-based; details: Homo sapiens, 0.1 nM β-estradiol, 20 hours, read-out: IC50 of inhibitory activity on the activity of the estrogen receptor reporter gene
# Protocol: MCF7 cells MCF7/ERE-luc (ATCC, HTB-22) expressing the luciferase reporter gene ERE-luc (synthesized by GENEWIZ, Inc.) controlled by the estrogen receptor response element were cultured in MEM (GE Healthcare, SH30024.01) medium containing 10% fetal bovine serum and 500 µg/ml G418. On the first day of the experiment, MCF7/ERE-luc cells were seeded in a 96-well plate with incomplete MEM medium containing 10% fetal bovine serum treated with activated charcoal (BioSun, BS-0004-500) at a density of 30,000 cells/well (100 μl of cell suspension per well), and the plate was incubated in a cell incubator at 37° C. and 5% CO2 overnight. On the second day, 10 μl of β-estradiol (SIGMA, E2758-250MG) solution formulated with the above incomplete medium or test compound solution of different concentrations formulated with the above incomplete medium was added to each well, wherein the final concentration of β-estradiol was 0.1 nM, and the final concentrations of the compound were nine concentration points obtained by a 10-fold gradient dilution starting from 10 μM, a blank control containing 0.5% DMSO was set, and the plate was incubated in a cell incubator at 37° C. and 5% CO2 for 20 hours. On the third day, the 96-well plate was taken out, and 100 μl of ONE-Glo™ Luciferase Assay system (Promega, E6110) was added to each well to determine the activity of luciferase. The plate was left to stand at room temperature for 3 minutes until the cells were fully lysed, and the luminescence signal values were measured using a multi-label microplate reader (PerkinElmer, VICTOR 3). The IC50 values of the inhibitory activity of the compounds were calculated using Graphpad Prism software based on the concentrations and luminescence signal values of the compounds.
# The inhibitory effect of the compounds of the present disclosure on the activity of the estrogen receptor reporter gene was determined by the above test. A graph of the chemiluminescence signal values versus the logarithmic concentrations of the compound was made using Graghpad Prism.
# MCF7 cell = test: Inhibition of proliferation of MCF7 cell (CellTiter-Glo, 144 hours); assay type: cell-based; details: Homo sapiens; for IC50: MCF7, CellTiter-Glo, read-out: IC50 of the inhibitory effect on the proliferation of MCF7 cell; for Emax: MCF7 cell proliferation, read-out: Maximum inhibition
# Protocol: (§1) MCF7 cells (ATCC, HTB-22) were cultured in MEM (GE Healthcare, SH30024.01) complete medium containing 10% fetal bovine serum. On the first day of the experiment, MCF7 cells were seeded in a 96-well plate with the complete medium at a density of 3,000 cells/well (100 μl of cell suspension per well), and the plate was incubated in a cell incubator at 37° C. and 5% CO2 overnight. On the second day, the medium in each well was replaced with 135 μl of MEM incomplete medium containing 2% fetal bovine serum. 15 μl of test compound solution of different concentrations formulated with the incomplete medium was added to each well, wherein the final concentrations of the compound were nine concentration points obtained by a 4-fold gradient dilution starting from 100 nM. A blank control containing 0.5% DMSO was set. The plate was incubated in a cell incubator at 37° C. and 5% CO2 for 144 hours. On the eighth day, the 96-well plate was taken out, and 150 μl of CellTiter-Glo® Luminescent Cell Viability Assay (Promega, G7573) was added to each well. The plate was left to stand at room temperature for 10 minutes, and the luminescence signal values were measured using a multi-label microplate reader (PerkinElmer, VICTOR 3). The IC50 values of the inhibitory activity of the compounds were calculated based on the concentrations and luminescence signal values of the compounds using Graphpad Prism software.
# A graph of the chemiluminescence signal values versus the logarithmic concentrations of the compound was made using Graghpad Prism to obtain the IC50 values of the compound.
# MCF7 D538G = test: Inhibition of proliferation of MCF7 cell expressing ERα D538G mutant; assay type: cell-based; details: Homo sapiens, 144 hours; for Emax: read-out: Maximum inhibition
# Text: (§2) The mutants ERα Y537S and ERα D538G of human estrogen receptor α (ERαs) protein were obtained by site-directed mutagenesis using the cDNA of wild-type ESR1 gene (Accession No. NM000125) as a template according to double-primer PCR. The primer sequences used for mutagenesis are as follows (the nucleotides underlined are the sites of mutagenesis):
# (§3) The cDNA of mutant ESR1 was cloned into the target lentiviral vector pCDH-CMV-MCS-EF1-Puro (SBI, CD510B-1). The lentiviral plasmid with the mutant ESR1 gene sequence and the lentiviral packaging plasmids pVSV-G and pCMV-dR8.91 (SBI, LV500A-1) were transfected into HEK-293T cells (ATCC, CRL-3216) by Lipofectamine 3000 Transfection Reagent (ThermoFisher Scientific, Cat #L3000075). 48 hours after the transfection, the supernatant of the virus-containing DMEM high-glycemic medium (GE Healthcare, SH30243.01) containing 10% FBS was filtered, and ultracentrifuged to obtain the virus pellet. The virus pellet was resuspended in an appropriate amount of MEM medium (GE Healthcare, SH30024.01) containing 10% FBS, non-essential amino acids (SIGMA, M7145-100ML) and sodium pyruvate (SIGMA, S8636-100ML), and the resulting suspension was added to MCF7 cells (ATCC, HTB-22). Polybrene (SIGMA, H9268-5G) at a final concentration of 8 µg/ml was added, and the cells were incubated overnight. Two days after the transfection, […] puromycin (invitrogen, A11138-03) was added to the cell culture medium for resistance screening. After about two weeks, the MCF7 cell line capable of stably expressing ERαY537S and ERα D538G mutants was obtained.
# as §1, with “MCF7 cells expressing ERα mutant were cultured” for “MCF7 cells (ATCC, HTB-22) were cultured”, “the experiment, the cells were” for “the experiment, MCF7 cells were”, “control containing 0.500 DMSO was” for “control containing 0.5% DMSO was”, “C. and […] for” for “C. and 5% CO2 for”, “and 150 of CellTiter-Glo®” for “and 150 μl of CellTiter-Glo®”
# MCF7 ERαY537S = test: Inhibition of proliferation of MCF7 cell expressing ERα Y537S mutant; assay type: cell-based; details: Homo sapiens, 144 hours; for Emax: read-out: Maximum inhibition
# Text: as §2, §3
# as §1, with “MCF7 cells expressing ERα mutant were cultured” for “MCF7 cells (ATCC, HTB-22) were cultured”, “the experiment, the cells were” for “the experiment, MCF7 cells were”, “control containing 0.500 DMSO was” for “control containing 0.5% DMSO was”, “C. and […] for” for “C. and 5% CO2 for”, “and 150 of CellTiter-Glo®” for “and 150 μl of CellTiter-Glo®”
# [2] = target: estrogen receptor ERα Y537S mutant-type (Homo sapiens (Human), UniProt P03372, Y537S); test: Covalent modification of ERα Y537S mutant-type LBD by high-resolution mass spectrometry; assay type: binding; details: after 24 hours; 2 μM protein, 10 μM compound, 4° C.
# Sequence of estrogen receptor ERα Y537S mutant-type (P03372 296-554 Y537S): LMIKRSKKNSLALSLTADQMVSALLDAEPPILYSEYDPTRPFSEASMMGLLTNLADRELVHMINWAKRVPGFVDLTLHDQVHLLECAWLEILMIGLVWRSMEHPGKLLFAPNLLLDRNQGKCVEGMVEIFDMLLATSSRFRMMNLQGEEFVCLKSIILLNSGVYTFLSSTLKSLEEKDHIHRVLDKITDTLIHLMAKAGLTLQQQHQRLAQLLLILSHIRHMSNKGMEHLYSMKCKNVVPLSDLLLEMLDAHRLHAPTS
# Protocol: (§4) The ligand binding domain (LBD, aa296-554) of estrogen receptor ERα wild-type and ERα Y537S mutant-type was expressed in E. coli and purified. 2 μM ERα wild-type or ERα Y537S mutant-type protein and 10 μM compound were added to a buffer solution containing 50 mM Tris-HCl, pH7.5, 150 mM NaCl, 1 mM TCEP and 5% glycerol and mixed well. The solution was incubated at 4° C. for 24 hours, followed by high-resolution mass spectrometry (Agilent Technologies, Agilent Q-tof 6530) assay. Alternatively, 1 μM ERα wild-type or ERα Y537S mutant-type protein and 3 μM compound were added to a buffer solution containing 50 mM Tris-HCl, pH7.5, 150 mM NaCl, 1 mM TCEP and 5% glycerol and mixed well. The solution was incubated at 37° C. for 15 minutes, followed by high-resolution mass spectrometry assay. In the mass spectrometry assay results, the peak whose molecular weight is the sum of the molecular weight of the protein and compound is the product of covalent modification. The percentage of covalent modification is obtained by calculating the ratio of […] to total protein.
# [3] = target: estrogen receptor ERα wild-type (Homo sapiens (Human), UniProt P03372); test: Covalent modification of ERα wild-type LBD by high-resolution mass spectrometry; assay type: binding; details: after 24 hours; 2 μM protein, 10 μM compound, 4° C.
# Sequence of estrogen receptor ERα wild-type (P03372 296-554): as the sequence (P03372 296-554 Y537S) above, with S242Y counted along it
# Protocol: as §4
IC50 [1] [nM],IC50 (MCF7 cell) [nM],IC50 (MCF7 D538G) [nM],IC50 (MCF7 ERαY537S) [nM],Covalent modification effect on the estrogen receptor ERα Y537S mutant-type [2] [%],Covalent modification effect on the estrogen receptor ERα wild-type [3] [%],SMILES,Emax (MCF7 cell) [%],Emax (MCF7 D538G) [%],Emax (MCF7 ERαY537S) [%]
3,0.6,2,3,90,87,"O=C(/C=C/CNC1(COc2ccc(/C(=C(/CC(F)(F)F)c3ccccc3)c3ccc4[nH]nc(F)c4c3)cn2)CC1)N1CCCC1 [Example 2, (E)-1-(Pyrrolidin-1-yl)-4-((1-(((5-((Z)-4,4,4-trifluoro-1-(3-fluoro-1H-indazol-5-yl)-2-phenylbut-1-en-1-yl)pyridin-2-yl)oxy)methyl)cyclopropyl)amino)but-2-en-1-one]",112,104,107
3,0.1,1,2,97,96,"CN(C)C(=O)/C=C/CNC1(COc2ccc(/C(=C(/CC(F)(F)F)c3ccccc3)c3ccc4[nH]nc(F)c4c3)cn2)CCCCC1 [Example 8, (E)-N,N-Dimethyl-4-((1-(((5-((Z)-4,4,4-trifluoro-1-(3-fluoro-1H-indazol-5-yl)-2-phenylbut-1-en-1-yl)pyridin-2-yl)oxy)methyl)cyclohexyl)amino)but-2-enamide]",113,103,107
2,0.4,1,2,83,85,"O=C(/C=C/CN1CCC[C@@H](Oc2ccc(/C(=C(/CC(F)(F)F)c3ccccc3)c3ccc4[nH]nc(F)c4c3)cn2)C1)N1CCOCC1 [Example 12, (E)-1-Morpholino-4-((R)-3-((5-((Z)-4,4,4-trifluoro-1-(3-fluoro-1H-indazol-5-yl)-2-phenylbut-1-en-1-yl)pyridin-2-yl)oxy)piperidin-1-yl)but-2-en-1-one]",108,96,104
4,1.1,3,6,,,"CN(C)C(=O)/C=C/CN[C@H]1CCN(c2ccc(/C(=C(/CC(F)(F)F)c3ccccc3)c3ccc4[nH]nc(F)c4c3)cn2)C1 [Example 35, (E)-N,N-Dimethyl-4-(((S)-1-(5-((Z)-4,4,4-trifluoro-1-(3-fluoro-1H-indazol-5-yl)-2-phenylbut-1-en-1-yl)pyridin-2-yl)pyrrolidin-3-yl)amino)but-2-enamide]",105,104,97
5,0.5,2,3,,,"CN(C)C(=O)/C=C/CNC1CCN(c2ccc(/C(=C(/CC(F)(F)F)c3ccccc3)c3ccc4[nH]nc(F)c4c3)cn2)CC1 [Example 36, (E)-N,N-Dimethyl-4-((1-(5-((Z)-4,4,4-trifluoro-1-(3-fluoro-1H-indazol-5-yl)-2-phenylbut-1-en-1-yl)pyridin-2-yl)piperidin-4-yl)amino)but-2-enamide]",104,99,100
8,0.8,2,3,,,"CN(C)C(=O)/C=C/CN(C)[C@H]1CCCN(c2ccc(/C(=C(/CC(F)(F)F)c3ccccc3)c3ccc4[nH]nc(F)c4c3)cn2)C1 [Example 37, (E)-N,N-Dimethyl-4-(methyl((S)-1-(5-((Z)-4,4,4-trifluoro-1-(3-fluoro-1H-indazol-5-yl)-2-phenylbut-1-en-1-yl)pyridin-2-yl)piperidin-3-yl)amino)but-2-enamide]",98,101,86
